Data taken from patent publication US12528777B2, “Quinazolinones derivatives for treatment of non-alcoholic fatty liver disease, preparation and use thereof” (Council of Scientific and Industrial Research, priority 2020, dated 2026).
“Also recorded” adds a separate entry of the source.

Legend:
COP1 [1] = target: COP1 (Homo sapiens, UniProt Q8NHY2); experiment: In vitro ubiquitination of purified ATGL by COP1 with UbcH6; assay type: biochemical; set-up: host or cells: HEK293A; details: 5 μM compound, COP1 overexpressing HEK293A lysate
COP1 (Homo sapiens, UniProt Q8NHY2), sequence (Q8NHY2 whole entry): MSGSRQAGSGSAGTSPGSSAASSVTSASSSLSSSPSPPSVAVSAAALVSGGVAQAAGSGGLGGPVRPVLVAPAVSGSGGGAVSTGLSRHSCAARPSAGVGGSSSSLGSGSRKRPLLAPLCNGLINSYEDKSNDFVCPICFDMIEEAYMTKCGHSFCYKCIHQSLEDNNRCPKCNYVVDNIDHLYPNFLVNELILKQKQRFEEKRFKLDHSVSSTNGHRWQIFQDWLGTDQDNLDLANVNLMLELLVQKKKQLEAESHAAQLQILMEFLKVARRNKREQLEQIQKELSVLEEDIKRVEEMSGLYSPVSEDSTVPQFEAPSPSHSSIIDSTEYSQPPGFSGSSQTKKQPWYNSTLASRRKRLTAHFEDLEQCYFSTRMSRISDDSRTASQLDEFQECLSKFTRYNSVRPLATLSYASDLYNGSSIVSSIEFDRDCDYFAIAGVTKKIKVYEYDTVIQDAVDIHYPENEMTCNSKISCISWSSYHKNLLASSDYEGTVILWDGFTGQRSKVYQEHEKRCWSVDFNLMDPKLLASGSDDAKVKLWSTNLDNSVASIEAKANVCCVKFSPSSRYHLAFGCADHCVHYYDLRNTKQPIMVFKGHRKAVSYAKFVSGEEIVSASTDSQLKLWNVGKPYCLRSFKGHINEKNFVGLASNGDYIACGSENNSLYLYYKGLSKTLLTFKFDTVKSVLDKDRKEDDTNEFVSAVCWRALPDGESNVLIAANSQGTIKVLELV
Excerpt: Purification of ATGL protein and obtaining COP1 overexpressing cell lysate: Myc-ATGL plasmid and Myc-DDK-COP1 plasmid ([…] each) were transfected separately in cultured HEK293A cells with the help of Lipofectamine2000 (Invitrogen). Cells were harvested in Lysis Buffer and protein solution was extracted as described previously. The Lysis Buffer used to harvest COP1 overexpressing cells had 0.1% SDS supplemented in it. The concentration of protein was estimated using Bradford assay. For source of E3 ligase, the total cell lysate from COP1 overexpressing HEK293A cells were used.
For purification of Myc-ATGL: 1 ml of Ni^2+-NTA resin (Roche) was taken in a 15 ml centrifuge tube and centrifuged at 2000 RPM for 5 minutes. The upper ethanol layer was discarded and the pellet was washed in 1×PBS twice to remove any remaining traces of ethanol. The pellet was finally washed once with Lysis Buffer for equilibration. […] The tube was incubated overnight at 4° C. in a rotary shaker.
The next day, the solution was centrifuged at 2000 RPM for 10 minutes and the supernatant collected. Lysis Buffer (containing protease inhibitor cocktail twice the previous concentration) was used for washing the beads twice to remove non-specific and unattached reactants in a stringent condition. The beads were finally washed once with 1×PBS containing the same amount of protease inhibitor for equilibration. 300 μl of 500 mM Imidazole (Sigma Aldrich) solution in 1×PBS was added to the resin for elution of ATGL and centrifuged at 2000 RPM for 30 minutes and the eluted protein was collected. To the separated resin, 300 μl of 1M Imidazole solution was added and centrifuged at 2000 RPM for 30 minutes and the second elute was collected. […] of eluted protein from each elution was boiled with 5 μl of Laemmli's buffer at 95° C. for 10 minutes and run in 10% SDS-PAGE gel. The supernatant collected before elution of ATGL and the proteins still attached to the Ni^2+-NTA resin were also run in the SDS-PAGE. The resolved proteins were subsequently transferred on PVDF membranes and probed with anti-myc primary antibody to check the presence of purified ATGL in the elute. Also to check the yield of the purified protein, 40 μl of the elute was run in 10% SDS page and stained with Coomassie Brilliant Blue solution followed by destaining with methanol, glacial acetic acid and water in a 50:40:10 ratio.
For identifying the E2 ubiquitin-conjugating enzyme responsible for ATGL ubiquitination by COP1, an in vitro ubiquitinylation kit (Enzo Life Sciences) was used. The assay was reconstituted as per manufacturer's protocol with the panel of E2 conjugating enzymes provided and other required components at the mentioned concentrations. The reaction was carried out for 6 hours following which it was quenched as per directions with the provided 2× non-reducing gel buffer and then analysed by western blotting.
Having identified the E2 ubiquitin conjugating enzyme as UbcH6, ubiquitination assay was set up in vitro as described previously with 5 μM of the compound 9, 107, 171, 179 and 73 followed by quenching and analysis by western blotting.
Ubiquitination of a target protein is carried out in a three step process involving three different enzymes: E1 ubiquitin activating enzyme, E2 ubiquitin conjugating enzyme and E3 ubiquitin ligase. In humans, there is only one E1 ubiquitin activating enzyme and multiple E2 and E3 enzymes. […]

ATGL [2] = experiment: Western blot of ATGL level in HepG2 cells; assay type: cell-based; set-up: key to Increase in ATGL level: + = slight or in insignificant; ++ = Moderate; +++ and ++++ = active; +++ and ++++ = active; +++++ = very active; details: HepG2 cells, western blot, score
Summary of the method: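 HepG2 cells were treated with compound 24 h (10 μM screen; 50 nM–5 μM dose series) and lysed. 30 μg protein was western blotted for ATGL, with actin as loading reference. ATGL increase was expressed as percent of the 1.6-fold siCOP1 maximum and plotted against log concentration for EC50.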

ATGL [3] = experiment: qPCR of ATGL mRNA in HepG2 cells; assay type: cell-based; details: 5 μM and 10 μM, 24 hours
Description: (§1) Ubiquitination of ATGL by COP1 is a post translational event, therefore, it is expected that the mRNA level of ATGL will not change compared to control upon treatment with the compound of the present disclosure which inhibit COP1. To establish this, HepG2 cells were treated with 5 μM and 10 μM of the compounds 9, 107, 171, 179 and 73 for 24 hours. RNA was isolated using TRIzol reagent followed by chloroform treatment and precipitation with isopropanol. cDNA was obtained from the isolated RNA and qPCR was carried out using SyBr green reagent. COP1 and ATGL gene expression levels were checked. 18s was used as control. FIG. 8 illustrates that compounds exert no effect on the mRNA levels of ATGL.

COP1 [4] = experiment: qPCR of COP1 mRNA in HepG2 cells; assay type: cell-based; details: 5 μM and 10 μM, 24 hours
Description: as §1

[5] = Lipophilicity assay (octanol/buffer); assay type: physicochemical
Description: 1.56 g NaH2PO4·2H2O was dissolved in 0.5 L water in a 1 L beaker. After adjusting pH to 7.4 using NaOH solution, the volume was made up to 1 L. Equal volumes of sodium phosphate buffer (10 mM, pH 7.4) and n-octanol were added to a separation funnel and mixed thoroughly by shaking and inverting the funnel several times. The two layers were allowed to separate for overnight and then dispensed in two separate glass bottles. 10 mM stock solution was prepared in 100% DMSO and stored at 4° C. 495 μL of organic phase (1-octanol) was added to each well of a 2 mL deep well plate, followed by 495 μL of buffer and 10 μL of test compound was added. The plate was incubated for 3 hr at room temperature on a plate shaker at 500 rpm. After incubation, the samples were allowed to equilibrate for 20 min and then centrifuged at 4000 rpm for 30 min for complete phase separation and analysed by LC-UV.
Log D=Log (area of octanol/area of buffer)

Plasma stability assay = assay type: in vitro ADME, human
Description: 1 mM Stock of test compound was prepared from 10 mM initial stock solution of compounds by diluting 10 μL of 10 mM stock with 90 μL of DMSO. Then 10 μL of 1 mM stock was diluted with 90 µL of DMSO to give 100 μM concentration. The frozen plasma was thawed at room temperature and centrifuged at 1400 rpm at 4° C., for 15 minutes. Approximately […] of the clear supernatant fraction was transferred to a separate tube and was used for the assay. Final working stock of 1 μM was prepared by diluting 3 μL of 100 μM with 297 μL of plasma. Plasma containing the test compound was incubated for 120 min at 37° C. in shaker with 500 rpm. 50 μL of aliquot of sample at 0, 15, 30, 60 and 120 minutes were precipitated with 150 μL of acetonitrile containing internal standard and centrifuged at 4000 rpm at 4° C. for 20 minutes. 120 μL of supernatant was diluted with 120 μL of water and analyzed by LC-MS/MS.

HepG2 cells = experiment: Basal oxygen consumption rate (OCR) by Seahorse; assay type: cell-based; details: 5 μM, 24 hours, hydrochloride
Description: HepG2 cells were plated in Seahorse cell culture microplates (24 well). Cells were treated with 5 μM of compounds 9, 107, 238 and 238a for 24 hours. The calibrator plate was dipped in the calibrator solution and incubated overnight at 37° C. in a non-CO2 incubator. The next day, cells were washed with Agilent Seahorse XF Base Medium, Minimal DMEM twice, making sure to leave at least 50 μl of media in the wells and incubated for 1 hour at 37° C. in a non-CO2 incubator. Following this, oxygen consumption rate was measured in the Seahorse instrument. FIG. 12 illustrates basal oxygen consumption rate of compounds 9, 107, 238a, and 238.

| logD ([5]; n-octanol / 10 mM sodium phosphate buffer pH 7.4, LC-UV) | Lipophilicity class from Log D ([5]; pH 7.4) | Mean % remaining at 2 hrs in human Plasma (Plasma stability assay; 1 μM, 37° C., 120 min, LC-MS/MS) [%] | Plasma stability (Plasma stability assay; human plasma, after 2 hours, with respect to Propantheline) | Structure (SMILES) | ATGL ubiquitination by COP1 in vitro (COP1 [1]) | Increase in ATGL level (ATGL [2]) | ATGL mRNA level (ATGL [3]) | COP1 mRNA level (COP1 [4]) | Basal oxygen consumption rate (HepG2 cells) |
| --- | --- | --- | --- | --- | --- | --- | --- | --- | --- |
|  |  |  |  | CCC(COC)n1cnc2ccc(NC(=O)Nc3cccc(C(C)=O)c3)cc2c1=O (stereo not drawn) [Compound 171, 1-(3-acetylphenyl)-3-(3-(1-methoxybutan-2-yl)-4-oxo-3,4-dihydroquinazolin-6-yl)urea] | effective in reducing the ubiquitination of ATGL by COP1 | +++ | no significant changes | no significant changes |  |
| 1.95 | ideal lipophilicity | 10.3 | lower plasma stability | COCCn1cnc2ccc(NC(=O)Nc3cccc(C(C)=O)c3)c(Br)c2c1=O [Compound 73, 1-(3-acetylphenyl)-3-(5-bromo-3-(2-methoxyethyl)-4-oxo-3,4-dihydroquinazolin-6-yl)urea] | effective in reducing the ubiquitination of ATGL by COP1 |  | no significant changes | no significant changes |  |
|  |  |  |  | COCCn1c(CN2CCCCC2)nc2ccc(NC(=O)Nc3cccc(C(C)=O)c3)cc2c1=O.Cl [Compound 238a, 1-(3-acetylphenyl)-3-(3-(2-methoxyethyl)-4-oxo-2-(piperidin-1-ylmethyl)-3,4-dihydroquinazolin-6-yl)urea hydrochloride] |  |  |  |  | higher oxygen consumption rate compared to control; also recorded: increase in the basal OCR values |
